This passage reports XC50 results from ChEMBL document CHEMBL1157539, “Thousands of chemical starting points for antimalarial lead identification” (Nature, 2010).

The test relates to Plasmodium falciparum. Description: GSK_TCMDC: Inhibition of Plasmodium falciparum 3D7 in whole erythrocytes, using parasite LDH activity as an index of growth. The conditions noted are these: Plasmodium falciparum, 3D7. The class given is functional, organism-based.
In the case of `CCN(CC)CCN(Cc1ccc(-c2ccc(C(F)(F)F)cc2)cc1)C(=O)Cn1cc(Cc2cnn(C)c2)c(=O)nc1/C=C/c1ccc(F)cc1`, the XC50 amounted to 1060 nM.

`CCOC(=O)c1cn(CC)c2cc(N3CCCCCC3)c(F)cc2c1=O` returned an XC50 of 413 nM.

`CN(CCN)Cc1cccc(-c2ccc(-c3nc4cc(C(F)(F)F)ccc4[nH]3)s2)c1`: the XC50 turned out to be 997 nM.

In turn, `CC1(C)CNCc2cc(NC(=O)/C=C/c3ccc(Cl)cc3)ccc21` returned an XC50 of 1180 nM.

Compound `CCCCn1c(=N)c(C(=O)NCc2cccnc2)cc2c(=O)n3cccc(C)c3nc21` returned an XC50 of 745 nM.

`COc1cc(F)c2ncc(Cl)c([C@@H](O)CN3CCC(NCc4cc5c(cn4)OCCO5)CC3)c2c1` yielded an XC50 of 102 nM.

`COc1cc(NC(=O)c2sc(-c3ccc(Cl)cc3)cc2NC(=O)c2cccc(N(C)C)c2)ccc1OCCN1CCCC1` showed an XC50 of 709 nM.

Consider `Cc1ccc(OCCCCONC(=O)c2ccccc2)cc1`, for which the XC50 is 145 nM.

Compound `CCCOc1ccc(-c2nonc2NC(=O)c2cccc(OC)c2)cc1OCCC` had an XC50 of 1150 nM.

Compound `CCOc1c(Br)cc(C)cc1CNCCCNc1nc2ccccc2[nH]1` showed an XC50 of 666 nM.

Take `CCCCCCCCN1CCCN(C(=O)c2cccc(NC(=O)Nc3ccc4ccccc4c3)c2)CC1`: the XC50 came out at 762 nM.

With `COc1ccc(N2CCN(C(CNC(=O)C3CCCCC3)c3ccc4c(c3)OCO4)CC2)cc1` (stereo not given), the XC50 is 566 nM.

The compound `CN(C)c1ccc(-c2ccc(C(=O)NC3CCN(Cc4ccc5c(c4)OCCO5)CC3)s2)cc1` registered an XC50 of 1120 nM.

As for `COc1ccc(NC(=O)Nc2cccc(-c3cccc(-c4nc5cc(F)ccc5[nH]4)c3)c2)cc1`, the XC50 stood at 171 nM.

`Cc1ccc(NC(=S)N2CCCN(CCCCCNC(=O)/C=C/c3ccc(Cl)c(Cl)c3)CC2)cc1Cl` showed an XC50 of 916 nM.

`O=C(CN1CCN(C(=O)c2ccco2)CC1)Nc1ccccc1Br` had an XC50 of 558 nM.

Regarding `O=C(/C=C/c1ccc(-c2nc3ccc(Cl)cc3[nH]2)cc1)NCc1cccc(F)c1`, the XC50 was 640 nM.

Take `CC(C)c1ccc(OCC(O)CN(C)C(C)C(O)c2ccccc2)c(Br)c1` (stereo not given): the XC50 amounted to 815 nM.

As to `Cc1c(Cl)cccc1S(=O)(=O)N1CCCCC(c2ccc(C(F)(F)F)cc2)=N1`, the XC50 is 788 nM.

`N=C(N)NC(=O)Nc1cc(Br)c(Cl)c(Br)c1` returned an XC50 of 765 nM.

For `CCCc1cc(OC)c(C[C@H]2c3cc(O)c(Cl)cc3CCN2C)cc1OC`, the XC50 is 576 nM.

Regarding `Cc1nnsc1C(=O)Nc1cccc(-c2ccc(-c3nc4ccccc4[nH]3)s2)c1`, the XC50 is 885 nM.

As to `COc1ccccc1C(=O)Nc1ccc(Nc2nc(C)cc(N(C)C)n2)cc1`, the XC50 worked out at 789 nM.

As for `Cn1cncc1CCCN(Cc1ccc(-c2ccc(C(F)(F)F)cc2)cc1)C(=O)Cn1c(CCc2cccc(F)c2F)cc(=O)c2cccnc21`, the XC50 stood at 1250 nM.

`Oc1ccccc1CNCc1ccc(-c2cnc(N3CCCC(c4ccccc4)C3)nc2)cc1` (stereo not given) came in with an XC50 of 689 nM.

Regarding `Cc1cc(N[C@@H](CC(C)C)C(=O)NCCc2ccccc2)nc(NCCc2cccs2)n1`, the XC50 was found to be 1200 nM.

Compound `COc1ccc2nc(/N=C3\NC(c4ccccn4)(c4ccccn4)C(=O)N3C)[nH]c2c1` gave an XC50 of 586 nM.

In turn, `Cc1cccc2nc(-c3cccc(-c4ccc(NC(=O)c5cnn6cccnc56)cc4)c3)[nH]c12` registered an XC50 of 212 nM.

As for `CCN(CC)c1ccc(-c2nc3cc(Cl)cnc3[nH]2)cc1`, the XC50 turned out to be 1130 nM.

`Cc1cccc2nc(-c3ccc(-c4cccc(CNCCN(C)C)c4)cc3)[nH]c12`: the XC50 was found to be 682 nM.

`O=C(c1ccc(-c2cccc(-c3nc4cc(F)ccc4[nH]3)c2)cc1)N1CCCCC1CN1CCC(O)C1` (stereo not given) came in with an XC50 of 1400 nM.

Compound `COc1ccc(Cl)cc1S(=O)(=O)Nc1cccc(CCN2CCC(N3CCCCC3)CC2)c1` returned an XC50 of 704 nM.

In the case of `O=C(NC(CCCN1CCC2(CC1)OCc1ccccc12)c1ccc(Cl)c(Cl)c1)c1cc(C(F)(F)F)cc(C(F)(F)F)c1` (stereo not given), the XC50 worked out at 543 nM.

In the case of `CC(Oc1ccc(Cl)cc1)C(=O)Nc1cc(C(F)(F)F)ccc1N1CCOCC1` (stereo not given), the XC50 was 532 nM.

For `NC1=NC2(CCCCC2)N(OCCCCCCc2ccccc2)C(N)=N1`, the XC50 was 347 nM.

Regarding `CO/C(=C\C=C\c1cc2cc(Cl)c(Cl)cc2[nH]1)C(=O)NCCCN1CCN(c2cccc(Cl)c2)CC1`, the XC50 turned out to be 730 nM.

The compound `COc1ccc2nccc(N3CCC(NCCNCc4ccc5c(n4)NC(=O)CO5)C3)c2n1` (stereo not given) returned an XC50 of 862 nM.

For `N#Cc1ccc2c(c1)CN(CCC1CCC(NC(=O)c3cc4cc(OC(F)(F)F)ccc4[nH]3)CC1)CC2` (stereo not given), the XC50 was determined as 777 nM.

`COc1ccccc1N1CCN(C(C(=O)NCc2ccc3c(c2)OCO3)c2ccc(C)cc2)CC1` (stereo not given) registered an XC50 of 985 nM.

Compound `COc1ccc(NC(=O)/C=C/c2ccc(Cl)c(C(F)(F)F)c2)cc1OCCN(C(C)C)C(C)C` gave an XC50 of 626 nM.

`COc1ccc(OCCCON2C(=N)N=C(N)NC2(C)C)cc1`: the XC50 came out at 3.2 nM.

`COCCN1CCC(C(=O)NCC(C)(C)c2nc(-c3ccc(Br)c(O)c3)c(-c3ccncc3)[nH]2)CC1`: the XC50 turned out to be 911 nM.

`O=C(Nc1ccc(OC2CCN(Cc3ccc(F)cc3)C2)c(Cl)c1)c1ccco1` (stereo not given) gave an XC50 of 195 nM.

`CC(C)c1cccc(OCC2CCN(c3ncc(C(=O)Nc4ccccc4)cc3Cl)CC2)c1`: the XC50 was determined as 1060 nM.

Consider `OCC1CCN(Cc2ccc(-c3ccc(-c4nc5cc(F)ccc5[nH]4)s3)cc2)CC1`, for which the XC50 is 850 nM.

For the compound `O=C(Nc1cccc(F)c1)NC1CCN(c2ccnc3cc(Cl)ccc23)CC1`, the XC50 is 609 nM.

For `O=C(/C=C/c1ccc(Cl)c(Cl)c1)NC1CCC(CN2CCC(c3coc4ccccc34)CC2)CC1` (stereo not given), the XC50 is 826 nM.

The compound `Cc1c(Br)cc2nc(-c3ccc(C(=O)NC4CCN(Cc5ccccc5)CC4)cc3)[nH]c2c1C` gave an XC50 of 332 nM.

For the compound `O=C(N[C@@H](CC1CCCCC1)C(=O)NC1CCCCCC1)c1ccc(O)c(-c2ccc(Cl)c(Cl)c2)c1`, the XC50 is 102 nM.

Compound `COc1ccc(-c2cccc(NC(=O)c3cccc(C#N)c3)c2)cc1CN1CCCC1` displayed an XC50 of 748 nM.

For `O=C(Nc1ccc(OC2CCN(Cc3ccsc3)CC2)c(Cl)c1)c1ccco1`, the XC50 came out at 784 nM.

As for `COc1cc(-n2c(CN3CCCC3)nc3cc(-c4ccc(Cl)cc4)sc3c2=O)ccc1OCCN1CCCC1`, the XC50 was 1040 nM.

On to `COC(=O)c1sc(-c2ccc(Cl)cc2)cc1N(CCCN1CCC(N2CCCCC2)CC1)S(=O)(=O)c1ccc(C)cc1`, for which the XC50 worked out at 744 nM.

In the case of `COc1ccc(-c2ccc(NC(=O)c3ccc(C#N)cc3)cc2)cc1CN1CCC(O)CC1`, the XC50 amounted to 581 nM.

The compound `NCc1ccc(CNCc2ccc(-c3ccc(-c4nc5cc(C(F)(F)F)ccc5[nH]4)s3)cc2)cc1` gave an XC50 of 157 nM.

`CC(=O)c1ccc(N2CCN(C(=O)Nc3ccc(Cl)cc3)CC2)cc1` displayed an XC50 of 979 nM.

`O=C(NC1CCN(c2ccnc3cc(Cl)ccc23)C1)c1ccc(F)cc1` (stereo not given) yielded an XC50 of 187 nM.

In turn, `CC(CCON1C(N)=NC(N)=NC1(C)C)c1ccc(Cl)c(Cl)c1` (stereo not given) came in with an XC50 of 3.2 nM.

Turning to `CCOc1cc(CC)ccc1C1CCN(CCN2CCC(CNC(=O)c3ccc(-c4ccc(C#N)cc4)cc3)CC2)CC1`, the XC50 worked out at 708 nM.

`CN1CCN(CCCN(Cc2cccc(-c3ccc(CNC4CCCC4)cc3)c2)C(=O)CCC2CCCC2)CC1` yielded an XC50 of 761 nM.

Take `O=C(Nc1cccc(C(F)(F)F)c1)NC1CCN(c2ccnc3cc(Cl)ccc23)CC1`: the XC50 is 289 nM.

In turn, `O=C(Cc1c[nH]cn1)Nc1ccc(-c2cccc(-c3nc4cc(C(F)(F)F)ccc4[nH]3)c2)cc1` displayed an XC50 of 742 nM.

The compound `CC(=O)c1c(C)[nH]c(C(=O)Nc2ccc(-c3nc4ccc(C)cc4s3)cc2)c1C` gave an XC50 of 837 nM.

For `CCN(CC)S(=O)(=O)c1ccc(C(=O)Oc2ccccc2N(Cc2ccc(OC)cc2)C2=NS(=O)(=O)c3ccccc32)cc1`, the XC50 was found to be 585 nM.

In the case of `O=S(=O)(c1ccc(NC(S)=NN=Cc2ccccn2)cc1)N1CCCCC1`, the XC50 came to 720 nM.

`COc1ccc(CNCc2cccc(-c3ccc(-c4nc5ccccc5[nH]4)cc3)c2)cc1` came in with an XC50 of 311 nM.

The compound `CC(C)(C)CC(=O)Nc1ccc(Nc2cc(-c3ccncc3)cc3ncc(C(N)=O)cc23)cc1` had an XC50 of 700 nM.

As to `COc1ccc(NS(=O)(=O)c2ccccc2Br)cc1N1CCN(C)CC1`, the XC50 worked out at 967 nM.

For `Cc1ccc(Cn2nc(N3CCNCC3)ccc2=O)cc1NC(=O)Nc1ccc(-c2ccccc2)cc1`, the XC50 amounted to 836 nM.

Compound `CC(=O)c1ccccc1OCCSc1nnc(Cc2cccs2)n1C1CCCCC1` yielded an XC50 of 919 nM.

Take `CS(=O)(=O)c1ccc(CNCc2cccc(-c3cccc(-c4nc5cc(F)ccc5[nH]4)c3)c2)cc1`: the XC50 amounted to 559 nM.

As for `O=c1ccccn1CCCC1CCCCN1` (stereo not given), the XC50 worked out at 809 nM.

In turn, `CCCc1cc([C@@H](O)[C@@H]2C[C@@H]3CCN2C[C@@H]3CC)c2ccccc2n1` gave an XC50 of 433 nM.

Compound `Cc1ccnc(NC(c2ccc(Cl)c([N+](=O)[O-])c2)c2ccc3cccnc3c2O)c1` (stereo not given) had an XC50 of 927 nM.

With `CN(C)CCc1coc2ccc(C(=O)Nc3ccc(-c4ccc(O)cc4)cc3)cc12`, the XC50 came to 1080 nM.

Turning to `CN1C(C)(C)CC(NC(=O)c2ccc(-c3nc4cc(Cl)c(Cl)cc4[nH]3)cc2)CC1(C)C`, the XC50 is 730 nM.

Consider `CN(C)S(=O)(=O)c1ccc(Nc2nc(NCCC3C=NC=N3)nc3cc[nH]c(=O)c23)cc1` (stereo not given), for which the XC50 came out at 929 nM.

`CS(=O)(=O)c1cccc2sc(N3CCN(C(=O)c4ccc([N+](=O)[O-])o4)CC3)nc12` displayed an XC50 of 1240 nM.

Turning to `Clc1cc(Cl)c2cc(CN[C@H]3CCC[C@@H]3CNc3nc4ccccc4[nH]3)[nH]c2c1`, the XC50 came to 275 nM.

In the case of `COC(=O)C(=C(C)C)N1C(=O)[C@@H](NC(=O)OCc2ccccc2)[C@H]1SS[C@@H]1[C@H](NC(=O)OCc2ccccc2)C(=O)N1C(C(=O)OC)=C(C)C`, the XC50 was 434 nM.

The compound `O=C(Nc1ccc(OC2CCN(Cc3ccccc3)CC2)c(Cl)c1)c1ccsc1` displayed an XC50 of 900 nM.

In the case of `NC(=O)c1cccc(Nc2nccc(Nc3ccc(Oc4cccc5ccccc45)cc3)n2)c1`, the XC50 amounted to 1150 nM.

`O=C(/C=C/c1ccc(Cl)c(Cl)c1)NCCCCCN1CCC(c2cn[nH]c2-c2ccccc2)CC1`: the XC50 worked out at 1220 nM.

Regarding `CCC1(CC)N=C(N)N=C(N)C1c1ccc(Cl)c(Cl)c1` (stereo not given), the XC50 was 380 nM.

Compound `O=C(NCc1ccc(Cl)c(Cl)c1)c1cccc(C2CCCN(Cc3ccc4[nH]cnc4c3)C2)c1` (stereo not given) registered an XC50 of 932 nM.
